Reference: patent US4594421A, “Imidazopyridine compounds” (priority 1984, dated 1986)
Read-outs that look alike come from different tables or passages of the source.

How the values were obtained:
[1] = system: sciatic-gastrocnemious preparation; experiment: Neuromuscular blocking activity in vivo, sciatic-gastrocnemious preparation; parameters: species or system male Sprague-Dawley rats; details: for ED50: iv, read-out: ED50 (effective dose causing the 50% reduction of muscular contraction)
Description: (§1) The neuromuscular blocking activity has been evaluated:
(§2) in vivo, using the sciatic-gastrocnemious preparation, substantially following the method described by Hughes R. (Br. J. Anaesth. 44, 27, 1972). Male Sprague-Dawley rats weighing 200-250 g, anaesthetized (urethane 1,2 g/kg i.p.) and submitted to forced ventilation, were treated. The sciatic nerve was stimulated at a rate of 6 impulses per min. by means of square waves and overmaximal voltage with a duration of 0.5 msec. The left carotid artery was incannulated for the continuous registration of arterial blood pressure and heart rate.
(§3) The compounds to be tested were administered by i.v. route at increasing doses, given at intervals of at least 30 min. from one to another and, in any case, after the effect of previous administration had completely exhausted.
(§4) In addition, the time of latence (the interval between the administration and the maximal effect) and that of complete recovery have been determined.

[2] = Acute toxicity (LD50) in rat; parameters: species or system male Sprague-Dawley rats; details: in vivo, iv, Litchfield and Wilcoxon
Description: The LD50 were then calculated according to the method of Litchfield J. T. and Wilcoxon F. J. (J. Pharmac. Exp. Ther., 95, 99, 1949).

[3] = system: phrenic-diaphragm preparation; experiment: Neuromuscular blocking activity in vitro, phrenic-diaphragm preparation; parameters: species or system male Sprague-Dawley rats; details: rat phrenic-diaphragm, 37° C., cumulative concentrations, read-out: EC50 (effective concentration able to reduce the muscular contraction of 50%)
Description: as §1
in vitro, using the phrenic-diaphragm preparation according to the method described by Bulbring E. (Brit. J. Pharmac. Chemother. 1, 38, 1946). The preparation, taken from male Sprague-Dawley rats weighing 200-250 g, was placed into a bath for isolated organs, thermostatically kept at 37° C. and containing a nutritional liquid oxygenated with […] carboxygen. The phrenic nerve was stimulated by means of square wave impulses (12 per min., duration 0.5 msec., overmaximal voltage). […] The dose-effect curve, determined for each of them, allowed to calculate the EC50 or effective concentration able to reduce the muscular contraction of 50% (Table 1);

[4] = system: skeletal neuromuscular junction; details: known compound of the commerce; cited from earlier work
[5] = system: arterial blood pressure and heart rate; experiment: Cardiovascular effects (arterial blood pressure and heart rate) in vivo; parameters: species or system male Sprague-Dawley rats; details: rat, i.v.; for Arterial blood pressure Δ % / Heart rate Δ %: at ED50 on muscular contraction
Description: as §2, §3, §4

[6] = rat, i.v., anaesthetized (urethane)

SMILES	ED50 [1, 6] [µg/kg]	Latence (interval between the administration and the maximal effect) ([1]; rat, i.v.) [min]	Recovery (time of complete recovery) ([1]; rat, i.v.) [min]	activity in vivo ([1]; rat, i.v.)	LD50 [2] [µmol/kg]	EC50 [3] [µM]	known activity of the standard [4]	Arterial blood pressure Δ % [5] [%]	Heart rate Δ % [5]	ED50 ([1]; Rattus norvegicus) [µg/kg]	Arterial blood pressure Δ % at minimal active dose ([5]; at minimal active dose on muscular contraction) [%]
Cc1c(-c2ccccc2)n(/N=N/n2c(-c3ccccc3)c(C)[n+]3ccccc23)c2cccc[n+]12 [Fazadinium bromide, 1,1-azabis 3-methyl-2-phenylimidazo 1,2-a pyridinium bromide, reference compound]	1	1.5	6.6	active	1.5	13.9	competitive skeletal muscle paralysing activity	-16	+30%		
Cc1c(-c2ccccc2)n(CCCCn2c(-c3ccccc3)c(C)[n+]3ccccc23)c2cccc[n+]12 [Example 4, 1,1'-(1,4-Tetramethylene)bis(2-phenyl-3-methyl)imidazo[1,2-a]pyridinium perchlorate]	5	1.3	6.2		4.3	28.7		-28	+1%		
c1ccc(-c2c[n+]3ccccc3n2CCCCn2c(-c3ccccc3)c[n+]3ccccc23)cc1 [Example 9, 1,1'-(1,4-Tetramethylene)bis-2-phenylimidazo[1,2-a]pyridinium perchlorate]	3.3	2.1	7.0		3.2	28.9		-31	+25%		
Cc1c(-c2ccccc2)n(CCCCCCn2c(-c3ccccc3)c(C)[n+]3ccccc23)c2cccc[n+]12 [Example 8, 1,1'-(1,6-Hexamethylene)bis(2-phenyl-3-methyl)imidazo[1,2-a]pyridinium perchlorate]	1.3	2.1	7.7		2	13.6		-40	+68%		
c1ccc(-c2c[n+]3ccccc3n2CCCCCCCCn2c(-c3ccccc3)c[n+]3ccccc23)cc1 [Example 2, 1,1'-(1,8-Octamethylene)bis-2-phenylimidazo[1,2-a]piridinium perchlorate]	1.9	2.2	9.2		2.7	11.9		-45	+22%		
Cc1c(-c2ccccc2)n(CCCCCCCCn2c(-c3ccccc3)c(C)[n+]3ccccc23)c2cccc[n+]12 [Example 3, 1,1'-(1,8-Octamethylene)bis(2-phenyl-3-methyl)imiadazo[1,2-a]pyridinium perchlorate]	1.6	1.2	5.0		2	14.3		-28	+40%		
c1ccc(-c2c[n+]3ccccc3n2CCCCCCn2c(-c3ccccc3)c[n+]3ccccc23)cc1 [Example 11, 1,1'-(1,6-Hexamethylene)bis-2-phenylimidazo[1,2-a]pyridinium perchlorate]	2.1	2.3	8.8		3.1	12.9		-40	+42%		
Fc1ccc(-c2c[n+]3ccccc3n2CCCCCCn2c(-c3ccc(F)cc3)c[n+]3ccccc23)cc1 [Example 1, 1,1'-(1,6-Hexamethylene)bis[2-(4'-fluoro)phenyl]imidazo[1,2-a]pyridinium perchlorate]	3	2.2	7.9		3.9	15		-37	+28%		
COc1ccc(-c2c[n+]3ccccc3n2CCCCCCn2c(-c3ccc(OC)cc3)c[n+]3ccccc23)cc1 [Example 5, 1,1'-(1,6-Hexamethylene)bis[2-(4'-methoxy)phenyl]imidazo[1,2-a]pyridinium bromide monohydrate]	1.9	1.5	6.4		2.6	14.7		-39	+26%		
Brc1ccc(-c2c[n+]3ccccc3n2CCCCCCn2c(-c3ccc(Br)cc3)c[n+]3ccccc23)cc1 [Example 7, 1,1'-(1,6-Hexamethylene)bis[2-(4-bromophenyl)]imidazo[1,2-a]pyridinium bromide]	3	1.5	9.8		6	15.4		-50	-8%		
Cc1c(-c2ccccc2)n(CCn2c(-c3ccccc3)c(C)[n+]3ccccc23)c2cccc[n+]12 [Example 12, 1,1'-(1,2-Ethylene)bis(2-phenyl-3-methyl)imidazo[1,2-a]pyridinium perchlorate]		2.6	12.2		9.7	115		-5	+6%	5.6	-24
c1ccc(-c2c[n+]3ccccc3n2CCn2c(-c3ccccc3)c[n+]3ccccc23)cc1 [Example 10, 1,1'-(1,2-Ethylene)bis-2-phenylimidazo[1,2-a]pyridinium perchlorate]	4	2.8	14.0		8.8	31.4		-30	+28%		
